Measured values published in patent US6380198B1 (Laboratoire Medidom S.A., priority 1997, dated 2002).

Tests used:
intraocular pressure = assay: Intraocular pressure in New Zealand albino rabbits after instillation of a σ ligand; type: in vivo, rabbit (New Zealand albino); details: 1% preparation, 50 μl in right conjunctival fornix; 60 minutes after instillation; p<0.01
Method: A 1% preparation of NANM was administered (50 μl) in the conjunctival fornix of the right eye of male albino rabbits of the New Zealand strain, after measuring the (baseline) intraocular pressure.

σ-1 receptors = biological target: T1, σ-1 receptors (Oryctolagus cuniculus, UniProt G1SD54); assay: [3H](+)-pentazocine receptor binding and competitive binding on irido-ciliary body membranes; set-up: species or system rabbit (New Zealand albino)
T1 construct: cell membranes obtained from the irido-ciliary body complex; from tissue; host or cells: rabbit irido-ciliary body, P2 membrane fraction
Description: In order to identify the presence of a receptor sites in the eye the technique of “receptor binding” has been exploited. The latter has been carried out on cell membranes obtained from the irido-ciliary body complex. The irido-ciliary body complex had been explanted, after sacrifice, from male albino rabbits of the New Zealand strain. The tissue was homogenised in buffer and a fraction rich in cell membrane proteins was isolated, obtained by centrifugation. […] Aliquots of the said fraction of the homogenate containing 300 μg of total proteins were incubated with scalar amounts of [^3H](+)-pentazocine (which is used, for experimental purposes only, as a a ligand). The reaction was carried out at 37° C. for 150 minutes and then, after filtering, the radioactivity left on the filters was measured by liquid scintillation.

T1 sequence (G1SD54 1-223): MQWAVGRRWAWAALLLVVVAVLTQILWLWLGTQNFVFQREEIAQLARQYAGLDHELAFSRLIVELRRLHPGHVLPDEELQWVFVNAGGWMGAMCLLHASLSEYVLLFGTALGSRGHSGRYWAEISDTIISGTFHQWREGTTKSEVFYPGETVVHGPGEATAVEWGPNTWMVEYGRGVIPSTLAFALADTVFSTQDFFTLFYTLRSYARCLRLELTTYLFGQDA

SMILES: C=CCN1CC[C@@]2(C)c3cc(O)ccc3C[C@@H]1[C@@H]2C [NANM, (+)-N-allil-nor-meth-azocine]
- Intraocular pressure versus vehicle (intraocular pressure): significantly reduced
- Classes of σ receptor sites bound (Hill coefficient analysis) (σ-1 receptors; competitive binding): interacts with one only class
- Displacement of [3H](+)-pentazocine in competitive binding (σ-1 receptors; constant amount of radioligand, scalar amounts of competitor): shift the radioactive ligands from the receptor sites
